For 17 molecules, Ki results are on record in patent US9663530B2, “5-oxa-2-azabicyclo[2.2.2]OCTAN-4-yl and 5-oxa-2-azabicyclo[2.2.1]heptan-4-yl derivatives” (Hoffmann-La Roche Inc., priority 2014, dated 2017).

The target of assay [1] is mouse TAAR1 (Mus musculus (Mouse), UniProt Q923Y8). Description: Radioligand binding assay on mouse TAAR1. The settings on record: mouse TAAR1 (first value of the cell); membranes of HEK-293 cells stably expressing mouse TAAR1; read-out: Ki (μM) mouse/rat. Here is the method: (§1) Construction of TAAR Expression Plasmids and Stably Transfected Cell Lines
mouse TAAR1, sequence (Q923Y8 whole entry): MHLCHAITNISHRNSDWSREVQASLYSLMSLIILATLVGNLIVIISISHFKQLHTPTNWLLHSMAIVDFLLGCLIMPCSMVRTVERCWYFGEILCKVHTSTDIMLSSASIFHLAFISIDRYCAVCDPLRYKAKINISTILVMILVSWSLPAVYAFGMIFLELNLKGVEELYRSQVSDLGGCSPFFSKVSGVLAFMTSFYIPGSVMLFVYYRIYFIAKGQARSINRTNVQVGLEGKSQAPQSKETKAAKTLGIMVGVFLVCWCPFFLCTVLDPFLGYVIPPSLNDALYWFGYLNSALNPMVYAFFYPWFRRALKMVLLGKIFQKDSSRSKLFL
(§2) For the construction of expression plasmids the coding sequences of human, rat and mouse TAAR 1 were amplified from genomic DNA essentially as described by Lindemann et al.. The Expand High Fidelity PCR System (Roche Diagnostics) was used with 1.5 mM Mg^2+ and purified PCR products were cloned into pCR2.1-TOPO cloning vector (Invitrogen) following the instructions of the manufacturer. PCR products were subcloned into the pIRESneo2 vector (BD Clontech, Palo Alto, Calif.), and expression vectors were sequence verified before introduction in cell lines.
(§3) HEK293 cells (ATCC # CRL-1573) were cultured essentially as described by Lindemann et al. (2005). For the generation of stably transfected cell lines HEK293 cells were transfected with the pIRESneo2 expression plasmids containing the TAAR coding sequences (described above) with Lipofectamine 2000 (Invitrogen) according to the instructions of the manufacturer, and 24 hrs post transfection the culture medium was supplemented with 1 mg/ml G418 (Sigma, Buchs, Switzerland). After a culture period of about 10 d clones were isolated, expanded and tested for responsiveness to trace amines (all compounds purchased from Sigma) with the cAMP Biotrak Enzyme immunoassay (EIA) System (Amersham) following the non-acetylation EIA procedure provided by the manufacturer.
Radioligand Binding Assay on Mouse TAAR1
(§4) Membrane Preparation and Radioligand Binding.
HEK-293 cells stably expressing mouse TAAR1 were maintained at 37° C. and 5% CO2 in DMEM high glucose medium, containing fetal calf serum (10%, heat inactivated for 30 min at 56° C.), penicillin/streptomycin (1%), and 375 μg/ml geneticin (Gibco). Cells were released from culture flasks using trypsin/EDTA, harvested, washed twice with ice-cold PBS (without Ca^2+and Mg^2+), pelleted at 1,000 rpm for 5 min at 4° C., frozen and stored at −80° C. Frozen pellets were suspended in 20 ml HEPES-NaOH (20 mM, pH 7.4) containing 10 mM EDTA and homogenized with a Polytron (PT 6000, Kinematica) at 14,000 rpm for 20 s. The homogenate was centrifuged at 48,000×g for 30 min at 4° C. Subsequently, the supernatant was removed and discarded, and the pellet resuspended in 20 ml HEPES-NaOH (20 mM, pH 7.4) containing 0.1 mM EDTA using the Polytron (20 s at 14,000 rpm). This procedure was repeated and the final pellet resuspended in HEPES-NaOH containing 0.1 mM EDTA and homogenized using the Polytron. Typically, aliquots of 2 ml membrane portions were stored at −80° C. With each new membrane batch the dissociation constant (Kd) was determined via a saturation curve. The TAAR1 radioligand ^3[H]-(S)-4-[(ethyl-phenyl-amino)-methyl]-4,5-dihydro-oxazol-2-ylamine (described in WO 2008/098857) was used at a concentration equal to the calculated Kd value, that was usually around 0.7 nM, resulting in the binding of approximately 0.5% of the radioligand and a specific binding representing approximately 70% of the total binding. Nonspecific binding was defined as the amount of ^3[H]-(S)-4-[(ethyl-phenyl-amino)-methyl]-4,5-dihydro-oxazol-2-ylamine bound in the presence of 10 μM unlabeled ligand. All compounds were tested at a broad range of concentrations ([…]) in duplicates. The test compounds (20 […]μl/well) were transferred into a 96 deep well plate (TreffLab), and 180 μl of HEPES-NaOH (20 mM, pH 7.4) containing MgCl2 (10 mM) and CaCl2 (2 mM) (binding buffer), 300 μl of the radioligand ^3[H]-(S)-4-[(ethyl-phenyl-amino)-methyl]-4,5-dihydro-oxazol-2-ylamine at a concentration of 3.3×Kd in nM and 500 μl of the membranes (resuspended at […]) added. The 96 deep well plates were incubated for 1 hr at 4° C. Incubations were terminated by rapid filtration through Unifilter-96 plates (Packard Instrument Company) and glass filters GF/C (Perkin Elmer) presoaked for 1 hr in polyethylenimine (0.3%) and washed 3 times with 1 ml of cold binding buffer. […]

Assay [2] deals with rat TAAR1 (Rattus norvegicus (Rat), UniProt Q923Y9). As to the kind of experiment: Radioligand binding assay on rat TAAR1. The following applies: rat TAAR1 (second value of the cell); membranes of HEK-293 cells stably expressing rat TAAR1; read-out: Ki (μM) mouse/rat. The procedure:
as §1, §2, §3
Radioligand Binding Assay on Rat TAAR1
as §4
HEK-293 cells stably expressing rat TAAR1 were maintained at 37° C. and 5% CO2 in DMEM high glucose medium, containing fetal calf serum (10%, heat inactivated for 30 min at 56° C.), penicillin/streptomycin (1%), and 375 μg/ml geneticin (Gibco). Cells were released from culture flasks using trypsin/EDTA, harvested, washed twice with ice-cold PBS (without Ca^2+ and Mg^2+), pelleted at 1,000 rpm for 5 min at 4° C., frozen and stored at −80° C. Frozen pellets were suspended in 20 ml HEPES-NaOH (20 mM, pH 7.4) containing 10 mM EDTA and homogenized with a Polytron (PT 6000, Kinematica) at 14,000 rpm for 20 s. The homogenate was centrifuged at 48,000×g for 30 min at 4° C. Subsequently, the supernatant was removed and discarded, and the pellet resuspended in 20 ml HEPES-NaOH (20 mM, pH 7.4) containing 0.1 mM EDTA using the Polytron (20 s at 14,000 rpm). This procedure was repeated and the final pellet resuspended in HEPES-NaOH containing 0.1 mM EDTA and homogenized using the Polytron. Typically, aliquots of 2 ml membrane portions were stored at −80° C. With each new membrane batch the dissociation constant (Kd) was determined via a saturation curve. […] Nonspecific binding was defined as the amount of ^3[H]-(S)-4-[(ethyl-phenyl-amino)-methyl]-4,5-dihydro-oxazol-2-ylamine bound in the presence of 10 μM unlabeled ligand. All compounds were tested at a broad range of concentrations ([…]) in duplicates. The test compounds (20 […]μl/well) were transferred into a 96 deep well plate (TreffLab), and 180 μl of HEPES-NaOH (20 mM, pH 7.4) containing MgCl2 (10 mM) and CaCl2 (2 mM) (binding buffer), 300 μl of the radioligand ^3[H]-(S)-4-[(ethyl-phenyl-amino)-methyl]-4,5-dihydro-oxazol-2-ylamine at a concentration of 3.3×Kd in nM and 500 μl of the membranes (resuspended at 50 μg protein per ml) added. The 96 deep well plates were incubated for 1 hr at 4° C. Incubations were terminated by rapid filtration through Unifilter-96 plates (Packard Instrument Company) and glass filters GF/C (Perkin Elmer) presoaked for 1 hr in polyethylenimine (0.3%) and washed 3 times with 1 ml of cold binding buffer. After addition of 45 μl of Microscint 40 (PerkinElmer) the Unifilter-96 plate was sealed and after 1 hr the ratioactivity counted using a TopCount Microplate Scintillation Counter (Packard Instrument Company).

rat TAAR1, sequence (Q923Y9 whole entry): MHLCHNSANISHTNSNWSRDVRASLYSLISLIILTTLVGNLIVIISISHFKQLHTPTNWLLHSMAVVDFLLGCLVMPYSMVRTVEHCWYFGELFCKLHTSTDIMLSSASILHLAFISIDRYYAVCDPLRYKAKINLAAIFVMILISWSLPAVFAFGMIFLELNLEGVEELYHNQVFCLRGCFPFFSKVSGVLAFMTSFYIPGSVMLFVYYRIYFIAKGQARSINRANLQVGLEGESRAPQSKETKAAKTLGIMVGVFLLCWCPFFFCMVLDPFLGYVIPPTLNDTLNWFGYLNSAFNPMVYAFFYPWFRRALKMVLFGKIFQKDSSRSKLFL

Take `Clc1ccc(Nc2ccc(C34CCC(CO3)NC4)cc2)nc1` (racemic) [Example 3, (RS)-5-Chloro-N-[4-(5-oxa-2-azabicyclo[2.2.2]octan-4-yl)phenyl]pyridin-2-amine]: the Ki amounted to 0.0141 µM in assay [1] and 2.46 µM in assay [2].

Consider `FC(F)(F)c1ccc(Nc2ccc(C[C@@]34CN[C@@H](CO3)C4)cc2)nc1` [Example 63, N-[4-[[(1R,4R)-5-Oxa-2-azabicyclo[2.2.1]heptan-4-yl]methyl]phenyl]-5-(trifluoromethyl)pyridin-2-amine], for which the results for the Ki in assay [1] and in assay [2] were 0.0107 µM and 0.141 µM, respectively.

Regarding `O=C(Nc1ccc(C[C@@]23CN[C@@H](CO2)C3)cc1)c1ccc(OCC(F)(F)F)nc1` [Example 47, N-[4-[[(1R,4R)-5-Oxa-2-azabicyclo[2.2.1]heptan-4-yl]methyl]phenyl]-6-(2,2,2-trifluoroethoxy)pyridine-3-carboxamide], the Ki in assay [1] and in assay [2] was 0.0104 µM throughout.

Consider `CCOc1ccc(C(=O)Nc2ccc(C[C@@]34CN[C@@H](CO3)C4)cc2)cc1` [Example 49, 4-Ethoxy-N-[4-[[(1R,4R)-5-oxa-2-azabicyclo[2.2.1]heptan-4-yl]methyl]phenyl]benzamide], for which the Ki in assay [1] was 0.0067 µM; in assay [2], 0.142 µM.

With `O=C(Nc1ccc(C23CCC(CO2)NC3)cc1)Nc1cccc(Cl)c1` (racemic) [Example 68, (RS)-1-(3-Chlorophenyl)-3-[4-(5-oxa-2-azabicyclo[2.2.2]octan-4-yl)phenyl]urea], the figures for the Ki in assay [1] and in assay [2] were 0.0119 µM and 0.0681 µM, respectively.

On to `O=C(Nc1ccc(C[C@]23CN[C@H](CO2)C3)cc1)c1ccnc(C(F)(F)F)c1` [Example 18, N-[4-[[(1S,4S)-5-Oxa-2-azabicyclo[2.2.1]heptan-4-yl]methyl]phenyl]-2-(trifluoromethyl)pyridine-4-carboxamide], for which the values for the Ki in assay [1] and in assay [2] were 0.238 µM and 0.354 µM, respectively.

In the case of `O=C(Nc1ccc(C[C@]23CN[C@H](CO2)C3)cc1)c1cccc(Cl)c1` [Example 17, 3-Chloro-N-[4-[[(1S,4S)-5-oxa-2-azabicyclo[2.2.1]heptan-4-yl]methyl]phenyl]benzamide], the Ki was 0.112 µM in assay [1] and 0.229 µM in assay [2].

Consider `FC(F)(F)c1cnc(Nc2ccc(C34CCC(CO3)NC4)cc2)cn1` (racemic) [Example 64, (RS)—N-[4-(5-Oxa-2-azabicyclo[2.2.2]octan-4-yl)phenyl]-5-(trifluoromethyl)pyrazin-2-amine], for which the Ki in assay [1] is 0.03 µM; in assay [2] it was 7.68 µM.

As for `FC(F)(F)c1ccc(Nc2ccc(C[C@]34CN[C@H](CO3)C4)cc2)nc1` [Example 31, N-[4-[[(1S,4S)-5-Oxa-2-azabicyclo[2.2.1]heptan-4-yl]methyl]phenyl]-5-(trifluoromethyl)pyridin-2-amine], the Ki in assay [1] was 0.946 µM; in assay [2] it was 0.163 µM.

`O=C(Nc1ccc(C[C@@]23CN[C@@H](CO2)C3)cc1)c1cnc(C2CC2)nc1` [Example 51, 2-Cyclopropyl-N-[4-[[(1R,4R)-5-oxa-2-azabicyclo[2.2.1]heptan-4-yl]methyl]phenyl]pyrimidine-5-carboxamide]: the Ki is 0.0774 µM in assay [1] and 0.324 µM in assay [2].

As to `O=C(Nc1ccc([C@]23CN[C@H](CO2)C3)cc1)c1ccc(Cl)cc1` [Example 58, 4-Chloro-N-[4-[(1S,4R)-5-oxa-2-azabicyclo[2.2.1]heptan-4-yl]phenyl]benzamide], the Ki in assay [1] was found to be 0.016 µM; in assay [2] it was 0.071 µM.

As to `O=C(Nc1ccc(C[C@]23CN[C@H](CO2)C3)cc1)c1ccc(OCC(F)(F)F)nc1` [Example 27, N-[4-[[(1 S,4S)-5-Oxa-2-azabicyclo[2.2.1]heptan-4-yl]methyl]phenyl]-6-(2,2,2-trifluoroethoxy)pyridine-3-carboxamide], the Ki in assay [1] came out at 0.0552 µM; in assay [2], 0.013 µM.

`O=C(Nc1ccc(C[C@]23CN[C@H](CO2)C3)cc1)Nc1ccccc1Cl` [Example 9, 1-(2-Chlorophenyl)-3-[4-[[(1S,4S)-5-oxa-2-azabicyclo[2.2.1]heptan-4-yl]methyl]phenyl]urea]: the figures for the Ki in assay [1] and in assay [2] were 1.63 µM and 0.53 µM, respectively.

Regarding `CC(C)c1cc(C(=O)Nc2ccc(C[C@@]34CN[C@@H](CO3)C4)cc2)[nH]n1` [Example 52, 3-Isopropyl-N-[4-[[(1R,4R)-5-oxa-2-azabicyclo[2.2.1]heptan-4-yl]methyl]phenyl]-1H-pyrazole-5-carboxamide], the Ki in assay [1] was 0.295 µM; in assay [2], 1.16 µM.

Regarding `O=C(Nc1ccc(C[C@@]23CN[C@@H](CO2)C3)cc1)Nc1ccc(C(F)(F)F)cc1` [Example 22, 1-[4-[[(1R,4R)-5-Oxa-2-azabicyclo[2.2.1]heptan-4-yl]methyl]phenyl]-3-[4-(trifluoromethyl)phenyl]urea], the Ki in assay [1] was determined as 0.0126 µM; in assay [2], 0.0237 µM.

Consider `O=C(Nc1ccc(C[C@]23CN[C@H](CO2)C3)cc1)Nc1ccc(C(F)(F)F)cc1` [Example 8, 1-[4-[[(1S,4S)-5-Oxa-2-azabicyclo[2.2.1]heptan-4-yl]methyl]phenyl]-3-[4-(trifluoromethyl)phenyl]urea], for which the values for the Ki in assay [1] and in assay [2] were 0.846 µM and 0.0442 µM, respectively.

`FC(F)(F)c1nccc(Nc2ccc(C34CCC(CO3)NC4)cc2)n1` (stereo not shown) [Example 36, N-[4-(5-Oxa-2-azabicyclo[2.2.2]octan-4-yl)phenyl]-2-(trifluoromethyl)pyrimidin-4-amine]: the Ki in assay [1] was found to be 0.0471 µM; in assay [2], 1.97 µM.
